Laboratory results as given in ChEMBL document CHEMBL1122462, “Potential antiatherosclerotic agents. 4. [(Functionalized-alkyl)amino]benzoic acid analogues of cetaben” (1983).
Values joined by “and” are separate entries in the source; they are usually repeats but may differ in a detail not shown here. Equal values may be shown once.

Tests used:
[1] = system: Rattus norvegicus; experiment: In vivo Triglyceride lowering activity at dose as 0.03 % of the diet.; assay type: functional
[2] = system: Rattus norvegicus; experiment: In vivo Triglyceride lowering activity at dose as 0.01 % of the diet.; assay type: functional
[3] = target: T1, Sterol O-acyltransferase 1 (Rattus norvegicus) (UniProt O70536); experiment: In vitro inhibitory activity against acyl coenzyme A:cholesterol acyltransferase; design: concentration or dose not given beside the values; settings: concentration not given here
T1 sequence (whole entry): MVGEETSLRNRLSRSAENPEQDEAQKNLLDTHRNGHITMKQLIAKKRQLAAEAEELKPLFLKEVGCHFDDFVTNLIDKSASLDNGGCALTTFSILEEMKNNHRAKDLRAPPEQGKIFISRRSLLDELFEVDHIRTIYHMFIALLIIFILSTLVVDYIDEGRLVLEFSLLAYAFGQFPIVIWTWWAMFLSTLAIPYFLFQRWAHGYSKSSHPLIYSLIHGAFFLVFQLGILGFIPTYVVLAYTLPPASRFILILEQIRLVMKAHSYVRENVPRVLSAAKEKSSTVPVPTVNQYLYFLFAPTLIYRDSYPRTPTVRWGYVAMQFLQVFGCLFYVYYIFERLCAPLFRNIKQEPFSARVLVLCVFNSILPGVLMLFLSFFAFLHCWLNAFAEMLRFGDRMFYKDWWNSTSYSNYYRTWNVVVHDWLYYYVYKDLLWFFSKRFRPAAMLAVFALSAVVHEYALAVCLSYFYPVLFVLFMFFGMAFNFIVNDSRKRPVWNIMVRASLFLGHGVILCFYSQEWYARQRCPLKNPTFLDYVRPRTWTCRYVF

[4] = system: Rattus norvegicus; experiment: In vivo Sterol lowering activity at dose as 0.01 % of the diet.; assay type: functional
[5] = system: Rattus norvegicus; experiment: In vivo Sterol lowering activity at dose as 0.10 % of the diet.; assay type: functional
[6] = system: Rattus norvegicus; experiment: In vivo Triglyceride lowering activity at dose as 0.10 % of the diet.; assay type: functional
[7] = system: Rattus norvegicus; experiment: In vivo Sterol lowering activity at dose as 0.03 % of the diet.; assay type: functional
[8] = system: Rattus norvegicus; experiment: In vivo Triglyceride lowering activity at a dose of 0.10 % of the diet; assay type: functional
[9] = system: Rattus norvegicus; experiment: In vivo sterol lowering activity at dose of 0.10 % of the diet; assay type: functional
[10] = system: Rattus norvegicus; experiment: In vivo sterol lowering activity, dosed as 0.03 % of the diet; assay type: functional
[11] = system: Rattus norvegicus; experiment: In vivo Sterol lowering activity at dose as 0.01% of the diet; assay type: functional
[12] = system: Rattus norvegicus; experiment: In vivo Triglyceride lowering activity at dose as 0.01 % of the diet; assay type: functional
[13] = system: Rattus norvegicus; experiment: In vivo Triglyceride lowering activity at dose as 0.03 % of the diet; assay type: functional

inhibition [3] | Compound | Diet [1] | Diet [2] | Diet [4] | Diet [5] | Diet [6] | Diet [7] | serum triglyceride level (% of control) [8] | serum sterol level, % of control [9] | serum sterol level, percent of control [10] | serum sterol level, percent of control [11] | serum triglyceride level (% of control) [12] | triglyceride lowering activity [13]
18% | CCOC(=O)CCCCCNc1ccc(C(=O)OCC)cc1 | 72% | 68% | 96% | 84% | 71% | 92% |  |  |  |  |  | 
44% | CCCC(Nc1ccc(C(=O)OCC)cc1)C(=O)OCC (stereo unspecified) | 96% | 93% | 103% | 102% | 77% | 109% |  |  |  |  |  | 
2% | CCOC(=O)c1ccc(NC(=O)CCC(=O)OC)cc1 | 92% | 99% | 86% | 97% | 114% | 99% |  |  |  |  |  | 
24% | CCOC(=O)CNc1ccc(C(=O)OCC)cc1 | 114% | 109% | 90% | 100% | 121% | 100% |  |  |  |  |  | 
6% and 0% | O=C(O)CCNc1ccc(C(=O)O)cc1 | 108% | 97% | 101% | 100% |  | 118% | 72% |  |  |  |  | 
6% | CCOC(=O)c1ccc(N2CCCC2=O)cc1 |  |  |  |  | 72% |  |  | 84% |  |  |  | 
26% | CCOC(=O)c1ccc(NCCCC#N)cc1 | 113% | 131% | 116% | 109% | 97% | 118% |  |  |  |  |  | 
4% | O=C(O)CCCCCNc1ccc(C(=O)O)cc1 | 91% | 85% | 92% | 105% | 102% | 100% |  |  |  |  |  | 
17% | NC(=O)CNc1ccc(C(=O)O)cc1 |  |  |  | 100% | 102% |  |  |  |  |  |  | 
0% | CCCC(Nc1ccc(C(=O)O)cc1)C(=O)O (stereo unspecified) | 74% | 93% | 95% |  |  |  |  |  | 87% |  |  | 
 | O=C(O)c1ccc(NCCC2CCCC2)cc1 | 83% | 78% | 92% | 88% |  | 94% | 64% |  |  |  |  | 
32% | CCOC(=O)CN(CC(=O)OCC)c1ccc(C(=O)OCC)cc1 | 120% | 77% | 93% | 100% | 122% | 98% |  |  |  |  |  | 
8% | N#CCCCNc1ccc(C(=O)O)cc1 |  |  |  | 94% | 93% |  |  |  |  |  |  | 
23% | CCOC(=O)c1ccc(NC(C)C(=O)OCC)cc1 (stereo unspecified) | 110% | 123% | 107% | 107% | 82% | 93% |  |  |  |  |  | 
18% | O=C(O)CNc1ccc(C(=O)O)cc1 | 93% | 90% | 89% | 98% | 106% | 87% |  |  |  |  |  | 
14% | O=C(O)CN(CC(=O)O)c1ccc(C(=O)O)cc1 | 84% | 92% | 95% | 91% | 100% | 89% |  |  |  |  |  | 
0% | O=C(O)CCCNc1ccc(C(=O)O)cc1 |  |  |  | 99% | 86% |  |  |  |  |  |  | 
11% | CCOC(=O)CCCNc1ccc(C(=O)OCC)cc1 |  |  |  | 93% | 103% |  |  |  |  |  |  | 
28% | CCOC(=O)CCNc1ccc(C(=O)OCC)cc1 | 98% | 109% | 97% | 94% | 103% | 100% |  |  |  |  |  | 
< 42% | O=C(O)c1ccc(NCC(F)(F)C(F)(F)C(F)(F)C(F)(F)C(F)(F)C(F)(F)C(F)(F)F)cc1 |  |  |  |  |  |  | <31% | <59% | <66% | <87% | <51% | <40%
0% | CCOC(=O)c1ccc(NCCCCCCCCCCCCCCCC(=O)OC)cc1 |  |  |  |  |  |  | 129% | 104% | 110% | 105% | 140% | 173%
18% | CCCCCCCCCCC(=O)CCCCCNc1ccc(C(=O)O)cc1 |  |  |  |  |  |  | <46% | <84% | 90% | 95% | <63% | <68%
60% | CCOC(=O)c1ccc(NCCC2CCCC2)cc1 |  |  |  | 96% |  |  | 69% |  |  |  |  | 
< 43% | COCCCCCCCCCCCCCCCCNc1ccc(C(=O)O)cc1 |  |  |  |  |  |  | <52% | <86% | 96% | 97% | 76% | <73%
1% | O=C(O)c1ccc(NCC2CCCCC2)cc1 |  |  | 95% |  |  |  | 62% | 83% | 84% |  | 73% | 71%
< 38% | O=C(O)c1ccc(NCCCCCCCCCCCCCCCCS)cc1 |  |  |  |  |  |  | <40% | 101% | 101% | 96% | 67% | <45%
< 59% | CCOC(=O)c1ccc(NCCC[Si](C)(C)C)cc1 |  |  |  |  |  |  | <54% | <77% | 86% | 99% | <60% | <63%
< 51% | CC(C)CCCCCCCCCCCCCCNc1ccc(C(=O)O)cc1 |  |  |  |  |  |  | <29% | <44% | <67% | <79% | 76% | <50%
8% | CCOC(=O)c1ccc(NCCCCCCCCCCCCCCCC(F)(F)F)cc1 |  |  |  |  |  |  | <41% | <75% | <72% | <83% | <75% | <47%
